By viability, T/C is commonly meant the result in the treated group divided by that in the control group, in per cent. In general, IC50 refers to the concentration at which inhibition is half-maximal.

Structures are written as SMILES. Where “and” joins values, the source holds several entries; their conditions need not be identical. Equal values may be shown once.

Results on 16 compounds are retold here after PubChem BioAssay AID2060610 (Molecular Pharmacology Branch, DTP, NCI, 2025).

For the assay, the system named is 616215-338-R-J1-PDC complex spheroids, viability % test/control. Description: Anticancer human tumor 616215-338-R-J1-PDC patient-derived colon adenocarcinoma cell line growth inhibition [CLK]. Conditions: for viability, T/C: stronger effect = lower value. The source says: A high-throughput screen of multi-cell type tumor spheroids was designed to identify active combinations of […] and targeted small molecules. Complex spheroids include a stromal component modeled by human endothelial cells (HUVEC) and fibroblasts modeled by human mesenchymal stem cells (MSCs). The concentration ranges selected for each drug and investigational agent were based upon clinically achievable concentrations if the clinical Cmax of the agent was known.
Compounds. The drugs and investigational agents: cirtuvivint (SM08502; NSC835563), CC-671 (NSC850746), vemurafenib (NSC761431), tapotoclax (NSC804041), sotorasib (NSC818433), adagrasib (NSC831453), MRTX-1133 (NSC836407), BAY2416964 (NSC825713), copanlisib (NSC816437), inavolisib (NSC800729), abemaciclib (NSC768073), osimertinib (NSC779217), entinostat (NSC756642), eltanexor (KPT-8602, NSC794443), venetoclax (NSC766270), ceralasertib (NSC777638), bortezomib (NSC756655), olaparib (NSC753686), talazoparib (NSC767125), alisertib (NSC759677), peposertib (NSC802822), gemcitabine (NSC613327), 5-fluorouracil (NSC19893), SN-38 (NSC673596), oxaliplatin (NSC266046), paclitaxel (NSC125973), and doxorubicin (NSC123127), were obtained from the National Cancer Institute (NCI) Developmental Therapeutics Program Chemical Repository. The FDA-approved anticancer drug set is available from the Developmental Therapeutics Program at https://dtp.cancer.gov/organization/dscb/obtaining/available plates.htm. […] The stock solutions were prepared in dimethyl sulfoxide (DMSO, Sigma-Aldrich, St. Louis, MO, cat. D2650), except for the platinum complexes which were prepared in saline (Quality Biological, Gaithersburg, MD, cat. 114-055-101), at 800-fold the tested concentration and stored at -70 degrees C prior to their use. All drugs and investigational agents were tested over a range starting from a high concentration at or near the clinical Cmax and decreasing in half-log increments. If the clinical Cmax for an agent had not been determined, the highest concentration tested was 10 microM.
Cell Culture. All cells were maintained in an incubator at 37 degrees C and 5% CO2 with 95% humidity. The PDC lines were cultured according to standard operating procedures established by the NCI PDMR. Briefly, all PDCs were thawed and cultured in Matrigel-coated flasks prepared with a working solution of 1X Ham's F-12 nutrient mix, without supplementation (Invitrogen, Waltham, MA, cat. 11765054), 100 U/mL penicillin-streptomycin (Invitrogen, cat. 15140122), and 2.5% Matrigel (Corning Inc., Corning, NY, cat. 354248) for the first three passages. The 947758-054-R-J2-PDC line was cultured in 6B/Colon 1A media, which includes advanced DMEM/F-12 (Thermo Fisher Scientific, cat. 12634028), 10 mM HEPES (Thermo Fisher Scientific, cat. 15630080), 1X GlutaMAX supplement (Thermo Fisher Scientific, cat. 35050061), 0.1 mg/mL primocin (InvivoGen, cat. ant-pm-2), 10% defined fetal bovine serum, heat inactivated (HyClone Laboratories Inc., cat. SH30070.03HI), 1.25 mM N-Acetyl-L-cysteine (Sigma-Aldrich, cat. A9165), 10 mM nicotinamide (Sigma-Aldrich, cat. N0636), 1X B-27 supplement (Thermo Fisher Scientific, cat. 17504044), 1X N-2 supplement (Thermo Fisher Scientific, cat. 17502048), and 10 microM Y-27632 dihydrochloride (Tocris Bioscience, cat. 1254). The 876862-298-R-J1-PDC was cultured in 6E media, which includes all 6B/Colon 1A media components plus 50% L-WRN conditioned media (ATCC, cat. CRL-3276), 50 ng/mL recombinant human EGF recombinant protein (hEGF; Thermo Fisher Scientific, cat. PHG0311), 10 ng/mL recombinant human fibroblast growth factor 10 (hGFG-10; PeproTech, cat. 100-26), 1 ng/mL recombinant human fibroblast growth factor 2 (hFGF-2; PeproTech, cat. 100-18B), and 1 µM prostaglandin E2 (PGE2; Tocris, cat. 2296). The 227483-062-R1-J1-PDC line was cultured in Panc media, containing all 6E components except hFGF-2, with the addition of 500 nM SB-431542 (Selleckchem, cat. S1067) and 10 nM gastrin (Tocris, cat. 3006). […]
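Further: spheroids exposed to agents for 7 days.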
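Wherever viability, T/C is given: 100% = DMSO vehicle wells.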

Regarding `C#Cc1c(F)ccc2cc(O)cc(-c3ncc4c(N5CC6CCC(C5)N6)nc(OCC56CCCN5CC(F)C6)nc4c3F)c12` (stereo unspecified), the viability, T/C (compound 0.0316 µM) was 95.4% and 102%; the viability, T/C (compound 0.1 µM) was 96.2% and 91.8%; the viability, T/C (compound 0.316 µM) is 100% and 104%; the viability, T/C (compound 1 µM) is 119% and 114%; the viability, T/C (compound 3.16 µM) was 133% and 98.2%; the viability, T/C (compound 10 µM) was 83.3% and 65.1%. Further, under “curve of compound”, the half-inhibitory concentration (IC50) was more than 10 µM.
Consider `C=C(F)C(=O)N1CCN(c2nc(OCC3CCCN3C)nc3c2CCN(c2cccc4cccc(Cl)c24)C3)CC1CC#N` (stereo unspecified), for which the viability, T/C is 101% and 104% (compound 0.0316 µM); 99.9% and 107% (compound 0.1 µM); 96.3% and 110% (compound 0.316 µM); 93.6% and 106% (compound 1 µM); 116% and 114% (compound 3.16 µM); 9.79% and 0.24% (compound 10 µM). For the same compound, for the setting “curve of compound”, the IC50 is 6.03 µM and 5.89 µM.
Regarding `C=CC(=O)N1CCN(c2nc(=O)n(-c3c(C)ccnc3C(C)C)c3nc(-c4c(O)cccc4F)c(F)cc23)C(C)C1` (stereo unspecified), the viability, T/C reads like this: (compound 0.0316 µM) 95.4% and 104%; (compound 0.1 µM) 101% and 108%; (compound 0.316 µM) 106% and 119%; (compound 1 µM) 112% and 98.6%; (compound 3.16 µM) 108% and 110%; (compound 10 µM) 106% and 113%. Moreover, where the note is “curve of compound”, the IC50 was more than 10 µM.
With `C=CC(=O)Nc1cc(Nc2nccc(-c3cn(C)c4ccccc34)n2)c(OC)cc1N(C)CCN(C)C`, the viability, T/C (compound 0.000949 µM) is 108% and 95%; the viability, T/C (compound 0.003 µM) was 93.5% and 105%; the viability, T/C (compound 0.00949 µM) was 107% and 85.4%; the viability, T/C (compound 0.03 µM) was 95.3% and 86.5%; the viability, T/C (compound 0.0949 µM) was 134% and 90.5%; the viability, T/C (compound 0.3 µM) was 100% and 111%. Besides, the IC50 (curve of compound) is more than 0.3 µM.
On to `CC(C)CC(NC(=O)C(Cc1ccccc1)NC(=O)c1cnccn1)B(O)O` (stereo unspecified), for which the viability, T/C by setting is: (compound 0.000949 µM) 109% and 107%; (compound 0.003 µM) 109% and 97.9%; (compound 0.00949 µM) 0.2% and 0.21%; (compound 0.03 µM) 0.18% and 0.25%; (compound 0.0949 µM) 0.12% and 0.23%; (compound 0.3 µM) 0.85% and 0.21%. In addition, under “curve of compound”, the concentration for half-maximal inhibition (IC50) is 0.00561 µM and 0.00528 µM.
As for `CC(CO)NC(=O)c1cc(-c2ccc(Cl)cc2)nn(-c2cnn(C)c2)c1=O` (stereo unspecified), the viability, T/C was 90.7% and 94.5% (compound 0.0316 µM); 95.2% and 99.6% (compound 0.1 µM); 101% and 96% (compound 0.316 µM); 102% and 99.1% (compound 1 µM); 110% and 95% (compound 3.16 µM); 103% and 106% (compound 10 µM). For the setting “curve of compound”, the IC50 was more than 10 µM.
Turning to `CC(Nc1ccc2c(c1)OCCn1cc(N3C(=O)OCC3C(F)F)nc1-2)C(N)=O` (stereo unspecified), the viability, T/C (compound 0.0316 µM) is 89.4% and 107%; the viability, T/C (compound 0.1 µM) is 99.5% and 103%; the viability, T/C (compound 0.316 µM) is 105% and 108%; the viability, T/C (compound 1 µM) was 101% and 100%; the viability, T/C (compound 3.16 µM) was 99.9% and 110%; the viability, T/C (compound 10 µM) was 90.6% and 100%. The IC50 (curve of compound) was more than 10 µM.
Regarding `CCCS(=O)(=O)Nc1ccc(F)c(C(=O)c2c[nH]c3ncc(-c4ccc(Cl)cc4)cc23)c1F`, the viability, T/C is, setting by setting: (compound 0.0316 µM) 22.5% and 95.7%; (compound 0.1 µM) 33.6% and 96.8%; (compound 0.316 µM) 104% and 98.2%; (compound 1 µM) 96% and 95.1%; (compound 3.16 µM) 29.5% and 104%; (compound 10 µM) 0.01% and 24.1%. For the same compound, the IC50 (curve of compound) was 1.59 µM and 6.69 µM.
`CCN1CCN(Cc2ccc(Nc3ncc(F)c(-c4cc(F)c5nc(C)n(C(C)C)c5c4)n3)nc2)CC1`: the viability, T/C is 104% and 92% (compound 0.00316 µM); 125% and 93.7% (compound 0.01 µM); 111% and 103% (compound 0.0316 µM); 139% and 121% (compound 0.1 µM); 158% and 189% (compound 0.316 µM); 59.4% and 69.7% (compound 1 µM). Moreover, the IC50 (curve of compound) was more than 1 µM.
`CCc1c2c(nc3ccc(O)cc13)-c1cc3c(c(=O)n1C2)COC(=O)[C@]3(O)CC`: the viability, T/C was 110% and 111% (compound 0.00316 µM); 69.5% and 63.4% (compound 0.01 µM); 36.6% and 33.2% (compound 0.0316 µM); 17.5% and 24.2% (compound 0.1 µM); 11% and 16.1% (compound 0.316 µM); 5.51% and 7.45% (compound 1 µM). For the setting “curve of compound”, the IC50 is 0.0198 µM and 0.0174 µM.
Turning to `CN1CCN(c2cc(C(=O)Nc3cc4cc(-c5cnn(C)c5)ccc4cn3)ccn2)CC1`, the viability, T/C by setting is: (compound 0.0316 µM) 99.7% [middle of 12 runs]; (compound 0.1 µM) 107% [middle of 12 runs]; (compound 0.316 µM) 34.7% [middle of 12 runs]; (compound 1 µM) 1.63% [middle of 11 runs]; (compound 3.16 µM) 1% [middle of 11 runs]; (compound 10 µM) 0.25% [middle of 10 runs]. In addition, under “compound alone, run of 07/31/2023”, the IC50 was 238 nM [middle of 11 runs].
Consider `CNC(=O)c1ccc(Nc2nc(OC3CCCC3)c3c(-c4ccc5nc(C)oc5c4)c[nH]c3n2)c(OC)c1`, for which the viability, T/C (compound 0.0316 µM) was 90.7% [middle of 12 runs]; the viability, T/C (compound 0.1 µM) was 55.7% [middle of 12 runs]; the viability, T/C (compound 0.316 µM) is 44.2% [middle of 12 runs]; the viability, T/C (compound 1 µM) was 45.1% [middle of 12 runs]; the viability, T/C (compound 3.16 µM) was 42.3% [middle of 12 runs]; the viability, T/C (compound 10 µM) is 40.3% [middle of 12 runs]. Besides, the IC50 (compound alone, run of 08/01/2023) was 177 nM [middle of 12 runs].
On to `COC1C=CCC(C)C(C)S(=O)(=O)NC(=O)c2ccc3c(c2)N(CC2CCC21)CC1(CCCc2cc(Cl)ccc21)CO3` (stereo unspecified), for which the viability, T/C by setting is: (compound 0.0316 µM) 42.2% and 92.1%; (compound 0.1 µM) 33.1% and 98.1%; (compound 0.316 µM) 95.7% and 96.9%; (compound 1 µM) 104% and 101%; (compound 3.16 µM) 38.7% and 103%. In addition, the 50% inhibitory concentration (IC50) (curve of compound) is 2.05 µM and > 10 µM.
Consider `COc1c(OCCCN2CCOCC2)ccc2c3n(c(=NC(=O)c4cnc(N)nc4)nc12)CCN3`, for which the viability, T/C was 101% and 89.7% (compound 0.00316 µM); 111% and 96.4% (compound 0.01 µM); 106% and 114% (compound 0.0316 µM); 57.7% and 74.8% (compound 0.1 µM); 36.1% and 46% (compound 0.316 µM); 29% and 39.8% (compound 1 µM). Besides, under “curve of compound”, the concentration for half-maximal inhibition (IC50) is 0.143 µM and 0.245 µM.
Turning to `Cn1ncnc1[C@H]1c2n[nH]c(=O)c3cc(F)cc(c23)N[C@@H]1c1ccc(F)cc1`, the viability, T/C is 92% and 98.4% (compound 0.000316 µM); 105% and 97.6% (compound 0.001 µM); 102% and 94.1% (compound 0.00316 µM); 95% and 95.3% (compound 0.01 µM); 116% and 114% (compound 0.0316 µM); 106% and 116% (compound 0.1 µM). Also, the 50% inhibitory concentration (IC50) (curve of compound) was more than 0.1 µM.
As to `NC(=O)C(=Cn1cnc(-c2cc(C(F)(F)F)cc(C(F)(F)F)c2)n1)c1cncnc1`, the viability, T/C was 99.3% and 94.8% (compound 0.00949 µM); 103% and 87.1% (compound 0.03 µM); 103% and 94.1% (compound 0.0949 µM); 66.9% and 87.5% (compound 0.3 µM); 35.8% and 33.5% (compound 0.949 µM); 15% and 17.6% (compound 3 µM). In addition, where the note is “curve of compound”, the IC50 is 0.562 µM and 0.668 µM.
